We go through four compounds from patent US8507472B2 (priority 2010, dated 2013).

“And” between values parts separate entries of the source, which are not always exact repeats. Equal entries are not always repeated.

One assay concerns Uromyces appendiculatus. Kind of assay: Uromyces test (bean)/protective. The note with it: in vivo. In kind it is in vivo. In a few lines: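 Young bean plants sprayed with compound formulated in acetone/dimethylacetamide with emulsifier, inoculated with Uromyces appendiculatus spores after drying, held 1 day at ~20 °C and 100% humidity, then greenhouse ~21 °C, ~90% humidity. Efficacy scored 10 days post-inoculation, 0% = untreated control, 100% = no infection.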

A further assay relates to DON/AcDON production. Kind of assay: microbe, parasite or virus in culture. In kind it is cell-based, Fusarium graminearum. To be noted: 7 days at 28° C.
The test system of another assay is Puccinia triticina. Briefly: Puccinia triticina test (wheat)/protective. To be noted: in vivo. The format is in vivo. In a few lines: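 Protective test: young wheat plants sprayed with compound (dimethylacetamide/alkylaryl polyglycol ether formulation, water-diluted) at stated rate, then inoculated with Puccinia triticina spores once dry; 48 h at 20 °C, 100% RH, then greenhouse ~20 °C, ~80% RH. Efficacy scored 8 days post-inoculation, 0% = control, 100% = no infection.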

A further assay relates to Leptosphaeria nodorum. Kind of assay: Leptosphaeria nodorum test (wheat)/protective. The format is in vivo. To be noted: in vivo. In a few lines: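 Young wheat plants were sprayed protectively, then inoculated 1 day later with L. nodorum spores and held 48 h at 100% humidity and 22° C. They were then kept in a greenhouse at 90% humidity and 22° C. Efficacy was scored 7-9 days post-inoculation, where 0% equals control and 100% means no infection.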

The test system of the next assay is Pyricularia oryzae. To be noted: in vivo.
A further assay has as its system Pyrenophora teres. Kind of assay: Pyrenophora teres test (barley)/protective. The note with it: in vivo. The format is in vivo. In outline:
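Efficacy, read 7-9 days after spore inoculation, runs from 0% (equal to untreated control) to 100% (no infection). Barley sprayed with water-diluted DMF/emulsifier formulation was inoculated one day later, incubated 48 h at 22° C. and 100% rel. humidity, then held at 20° C. and 80% humidity.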

The test system of a further assay is Phytophthora infestans. In kind it is in vivo. To be noted: in vivo.
A further assay deals with Rhizoctonia solani. Kind of assay: Rhizoctonia test (rice)/protective. The note with it: 250 ppm active compound, protective, evaluation 4 days after inoculation. In kind it is in vivo. On the procedure: Solvent: 28.5 parts by weight of acetone
Emulsifier: 1.5 parts by weight of alkylaryl polyglycol ether
To produce a suitable preparation of active compound, 1 part by weight of active compound is mixed with the stated amount of solvent, and the concentrate is diluted with water and the stated amount of emulsifier to the desired concentration.
To test for protective activity, young rice plants are sprayed with the active compound preparation at the stated application rate. 1 day after the treatment, the plants are inoculated with hyphae of Rhizoctonia solani. The plants are then placed in a greenhouse at 100% relative atmospheric humidity and 25° C.
Evaluation is carried out 4 days after the inoculation. 0% means an efficacy which corresponds to that of the control, whereas an efficacy of 100% means that no infection is observed.

Another assay relates to Cochliobolus miyabeanus. Kind of assay: Cochliobolus test (rice)/protective. In kind it is in vivo. The note with it: 250 ppm active compound, protective, evaluation 4 days after inoculation.
The next assay concerns Sphaerotheca fuliginea. Briefly: Sphaerotheca test (cucumber)/protective. The format is in vivo. To be noted: in vivo. In outline:
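Infection was rated 7 days after spore inoculation as % efficacy (0% = control level, 100% = no disease). Inoculation followed 1 day after preventive spray of young cucumbers with compound formulated in N,N-dimethylformamide plus emulsifier and diluted with water; plants were held at 23 °C and 70% relative humidity.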

The subject of assay [1] is Fusarium graminearum. Briefly: microbe, parasite or virus in culture. The format is cell-based. The note with it: 50 μM.
Assay [2] has as its system Fusarium graminearum. The format is in vivo. The note with it: in vivo.
For the next assay, the system named is Septoria tritici. Briefly: Septoria tritici test (wheat)/protective. To be noted: in vivo. The format is in vivo. In a few lines:
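Young wheat plants were sprayed protectively with compound (dimethylacetamide/emulsifier formulation diluted in water), then inoculated with Septoria tritici spores after drying. Incubation was 48 hours at 20° C and 100% humidity, then 60 hours at 15° C and 100% humidity, then greenhouse at about 15° C, 80% humidity; efficacy was scored 21 days post-inoculation (0% = control, 100% = no infection).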

A further assay concerns Venturia inaequalis. Briefly: Venturia test (apple)/protective. The format is in vivo. The note with it: 100 ppm active compound, protective, evaluation 10 days after inoculation. In outline: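 Efficacy read 10 days after inoculation, where 100% is no infection and 0% matches untreated control. Plants kept 1 day at ~20° C and 100% relative humidity after conidia inoculation, then ~21° C and ~90% humidity; inoculation followed drying of a protective spray of compound formulated in acetone/dimethylacetamide plus emulsifier and diluted with water.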

A further assay concerns Botrytis cinerea. Kind of assay: Botrytis test (bean)/protective. The format is in vivo. To be noted: 100 ppm active compound, protective, evaluation 2 days after inoculation. In outline:
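Protective spray test: leaves inoculated with two B. cinerea-colonized agar plugs after the spray dried, then incubated in darkness, ~20° C., 100% relative humidity. Formulation was acetone/dimethylacetamide with emulsifier, water-diluted. Lesion size rated 2 days post-inoculation as efficacy (0% matching control, 100% infection-free).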

The next assay concerns Alternaria solani. Briefly: Alternaria test (tomato)/protective. In kind it is in vivo. To be noted: in vivo. In outline:
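Treatment was protective: spray application at the stated rate came one day before spore inoculation. Incubation was 24 h at 22 °C and 100% humidity, then 20 °C and 96% humidity. Infection was rated at day 7 as % efficacy against the control, with 100% meaning no disease.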

Assay [3] deals with Fusarium nivale (var. majus). Briefly: Fusarium nivale (var. majus) test (wheat)/protective. In kind it is in vivo. The note with it: 1000 ppm active compound, protective, evaluation 5 days after inoculation. In outline:
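Protective spray of young wheat plants at the stated rate (compound in dimethylacetamide with emulsifier, diluted in water), then inoculation with Fusarium nivale spores once dry. Plants kept at 10 °C and 100% humidity; scored 5 days after inoculation as % efficacy, where 0% equals untreated control and 100% means no infection.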

Consider `CC(=O)Nc1cc(-c2c(-c3ccccc3)nn3c2CCCC3)ccn1` [Example 19], for which the efficacy in % was 94% in the assay with Uromyces appendiculatus; 100% and 95% in the assay on Puccinia triticina; 95% with Leptosphaeria nodorum; 92% in the assay with Pyricularia oryzae; 100% with Pyrenophora teres; 100% in the assay on Phytophthora infestans. The efficacy in % is 100% in the assay with Rhizoctonia solani; 96% in the assay with Cochliobolus miyabeanus; 98% in the assay with Sphaerotheca fuliginea; 100% in the assay with Fusarium graminearum [2]; 100% in the assay on Septoria tritici; 93% in the assay with Venturia inaequalis. Moreover, the values for the efficacy in % (with Botrytis cinerea; with Alternaria solani; in assay [3]) were 99%, 100% and 100%, respectively. The “% inhibition of DON/AcDON at 50 μM” value in the assay on DON/AcDON production worked out at 100%. Moreover, the “% inhibition of the fungal growth of Fusarium graminearum at 50 μM” value (from here on “% inhibition of the fungal growth … at 50 μM”) with Fusarium graminearum [1] is 100%.

For the compound `CC(C)CC(=O)Nc1cc(-c2c(-c3ccc(F)cc3)nn3c2CCCC3)ccn1` [Example 30], the efficacy in % in the assay on Uromyces appendiculatus is 95%; in the assay on Puccinia triticina, 88%; in the assay with Leptosphaeria nodorum, 90%; in the assay with Pyricularia oryzae, 94%; in the assay with Pyrenophora teres, 100%; in the assay on Phytophthora infestans, 80%. Besides, the efficacy in % with Rhizoctonia solani came out at 100%; in the assay on Cochliobolus miyabeanus it was 96%; in the assay on Sphaerotheca fuliginea, 95%; with Fusarium graminearum [2] it was 88%; in the assay with Septoria tritici, 100%; with Venturia inaequalis, 99%. Further, the efficacy in % turned out to be 100% with Botrytis cinerea, 100% in the assay with Alternaria solani and 86% in [3]. The “% inhibition of DON/AcDON at 50 μM” value in the assay on DON/AcDON production worked out at 99%. Also, the “% inhibition of the fungal growth … at 50 μM” value with Fusarium graminearum [1] amounted to 88%.

In the case of `O=C(Nc1cc(-c2c(-c3ccc(F)cc3)nn3c2CCCC3)ccn1)C1CC1` [Example 20], the efficacy in % in the assay with Uromyces appendiculatus worked out at 94%; in the assay with Puccinia triticina, 100%; in the assay on Leptosphaeria nodorum, 95%; in the assay with Pyricularia oryzae it was 92%; in the assay with Pyrenophora teres it was 100%; in the assay with Phytophthora infestans it was 100%. In addition, the efficacy in % in the assay on Rhizoctonia solani turned out to be 100%; in the assay with Cochliobolus miyabeanus, 96%; in the assay on Sphaerotheca fuliginea, 100%; with Fusarium graminearum [2], 94%; in the assay with Venturia inaequalis, 99%; with Botrytis cinerea, 98%. For the same compound, the efficacy in % (in the assay on Alternaria solani; in assay [3]) was 100% in each case. For the same compound, the “% inhibition of DON/AcDON at 50 μM” value in the assay with DON/AcDON production was determined as 100%. For the same compound, the “% inhibition of the fungal growth … at 50 μM” value with Fusarium graminearum [1] is recorded as 95%.

In the case of `O=C(Nc1cc(-c2c(-c3ccccc3)nn3c2CCCC3)ccn1)C1CC1` [Example 21], the efficacy in % in the assay with Uromyces appendiculatus was 94%; with Puccinia triticina it was 95%; in the assay on Leptosphaeria nodorum, 95%; with Pyricularia oryzae, 98%; with Pyrenophora teres it was 100%; in the assay with Phytophthora infestans it was 90%. The efficacy in % with Rhizoctonia solani is given as 100%; with Cochliobolus miyabeanus, 96%; with Sphaerotheca fuliginea, 100%; in the assay on Fusarium graminearum [2], 100%; in the assay with Septoria tritici, 100%; in the assay on Venturia inaequalis, 99%. The efficacy in % was determined as 98% with Botrytis cinerea, 100% in the assay with Alternaria solani and 100% in [3]. The “% inhibition of DON/AcDON at 50 μM” value in the assay on DON/AcDON production turned out to be 100%. In the assay on Fusarium graminearum [1], the “% inhibition of the fungal growth … at 50 μM” value was determined as 97%.
